Measurements from paper PMC9227781, “Inhibitors of O-Acetylserine Sulfhydrylase with a Cyclopropane-Carboxylic Acid Scaffold Are Effective Colistin Adjuvants in Gram Negative Bacteria” (Pharmaceuticals, 2022).

How the values were obtained:
StOASS-B = biological target: T1, StOASS-B (Salmonella typhimurium, UniProt P29848); set-up: method as in PMID 26894308; conditions: read-out: KD toward isoform B from S. Typhimurium; cited from earlier work
T1 construct: His-tag (with TEV site) (cleaved yes); made in house; host or cells: E. coli Rosetta (DE3)
T1 sequence (P29848 1-303): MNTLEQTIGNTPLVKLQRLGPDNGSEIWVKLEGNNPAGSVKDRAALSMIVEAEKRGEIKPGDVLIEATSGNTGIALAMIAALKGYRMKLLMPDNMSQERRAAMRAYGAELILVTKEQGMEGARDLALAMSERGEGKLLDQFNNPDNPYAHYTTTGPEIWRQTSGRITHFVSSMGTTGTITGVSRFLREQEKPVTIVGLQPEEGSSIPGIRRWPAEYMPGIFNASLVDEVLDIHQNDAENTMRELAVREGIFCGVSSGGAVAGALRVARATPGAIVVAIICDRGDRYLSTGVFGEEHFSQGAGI

StOASS-A = biological target: T2, StOASS-A (Salmonella typhimurium, UniProt P0A1E3); set-up: method as in PMID 26894308; conditions: read-out: KD toward isoform A from S. Typhimurium; cited from earlier work
T2 construct: His-tag (with TEV site) (cleaved yes); made in house; host or cells: E. coli Rosetta (DE3)
T2 sequence (P0A1E3 whole entry, canonical isoform): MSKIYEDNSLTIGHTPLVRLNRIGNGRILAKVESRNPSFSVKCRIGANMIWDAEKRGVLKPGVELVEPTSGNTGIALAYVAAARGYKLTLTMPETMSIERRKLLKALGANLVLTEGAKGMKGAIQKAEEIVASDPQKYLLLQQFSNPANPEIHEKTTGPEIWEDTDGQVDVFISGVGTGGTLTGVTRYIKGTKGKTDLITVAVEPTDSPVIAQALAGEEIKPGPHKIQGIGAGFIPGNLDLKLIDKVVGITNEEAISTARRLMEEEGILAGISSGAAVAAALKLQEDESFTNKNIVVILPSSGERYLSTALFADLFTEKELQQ

[1] = system: all bacterial species considered in that study; set-up: method as in PMID 33513010; conditions: cited from earlier work
S. Typhimurium DW378 = experiment: Target engagement: MIC of 12h and colistin in cysK/cysM-inactive mutant strain; format: cell-based, Salmonella enterica serovar Typhimurium; conditions: colistin alone
Experimental: In this regard, compound 12h has been selected because of its favorable overall properties. It has been tested at a concentration of 32 μg/mL, in order to ensure complete inactivation of both the OASS isoforms. […] The MIC assays of 12h and colistin alone on the DW378 strain have been performed and they have been compared with those obtained on the WT strain. […] But, on the other hand, the MIC value of colistin was […] lower on the mutant strain than that on the WT, a result that overlapped those achieved with the association of colistin and 12h in WT cells.
MIC values were evaluated following CLSI guidelines with some modifications, as referred to in previous work. Twofold dilutions 25.6–0.05 mg/mL of the tested compounds were performed in DMSO in separate 96-well microtiter U-plates (Greiner, Milan, Italy). In a different 96-well microtiter U-plate, for each well of the replicates, 49 µL of broth medium were added. Then, in each well of the plate, one microliter of each compound at variable dilution in DMSO was added. For each test, three independent experiments with three replicates each were performed.
Antimicrobial activity of associations between the different compounds and colistin (Sigma-Aldrich, St. Louis, MO, USA, lot n. 049M-4836 V) was tested with checkerboard assay with minor modifications, as mentioned in the previous work. For each assay, three experiments with three replicates each were assessed. For each compound tested concentration, 96-wells microtiter U-plates were prepared with twofold serial dilutions of colistin in MHB starting from the MIC value (µg/mL) for ten consecutive dilutions in 50 µL of broth. In each well of the same replicate, 1 µL of each compound in DMSO was added at a fixed concentration, 100 times higher than the final desired concentration (3.2; 1.6; 0.8 mg/mL). Subsequently, 49 µL of the bacterial suspension at a concentration of 10^6 CFU/mL, adjusted spectrophotometrically as reported above, was added to each well, reaching the final bacterial concentration of 5 × 10^5 CFU/mL. Growth and sterility controls were performed for each experiment and for each replicate. Finally, the plates were incubated at 37 °C in aerobic atmosphere for 24 h. After incubation, plates were read by unaided eye with a microtiter reading mirror and then the OD of each well of the plates was measured spectrophotometrically at 620 nm. MIC values were calculated as the arithmetic mean ± SD of the unaided eye reading and the inhibition of growth for each tested dilution was calculated from the OD values (mean ± SD).
* This strain is defective for the expression of cysK and cysM genes, encoding for isozymes OASS-A and B. The genotypes of this strain are trpC109, cysK1772, and cysM1770. […]

K. pneumoniae ATCC13883 = experiment: MIC by broth microdilution, K. pneumoniae; format: cell-based, Klebsiella pneumoniae; conditions: colistin alone, MHB
Experimental: (§1) MIC values were evaluated following CLSI guidelines with some modifications, as referred to in previous work. Twofold dilutions 25.6–0.05 mg/mL of the tested compounds were performed in DMSO in separate 96-well microtiter U-plates (Greiner, Milan, Italy). In a different 96-well microtiter U-plate, for each well of the replicates, 49 µL of broth medium were added. Then, in each well of the plate, one microliter of each compound at variable dilution in DMSO was added. For each test, three independent experiments with three replicates each were performed. Tested reference bacterial strains (E. coli ATCC25922; S. Typhimurium ATCC14028; K. pneumoniae ATCC13883) were brought to the logarithmic phase of growth in MHB medium by incubation at 37 °C for 24 h. After incubation, bacterial suspensions were centrifuged (2000 rpm, 4 °C for 20 min), and then the pellets were resuspended in 100 mM phosphate buffer, pH 7.0, to reach a final bacterial concentration of 10^8 CFU/mL, adjusted by spectrophotometry (OD620nm ranged between 0.08–0.13). The obtained suspensions were further diluted 1:100 in broth medium to reach a bacterial concentration of 10^6 CFU/mL. Fifty µL of the bacterial suspension containing 10^6 CFU/mL were inoculated into each well within 30 min, to obtain a final concentration of 5 × 10^5 CFU/mL in a total volume of 100 µL. The final dilution range tested was 256–0.5 µg/mL. Growth and sterility controls were performed for each strain and for each tested compound. Plates were then incubated for 24 h at 37 °C in a static aerobic atmosphere. After incubation, plates were read by unaided eye with a microtiter reading mirror and then the OD of each well of the plates was measured spectrophotometrically at 620 nm. MIC values were calculated as the arithmetic mean ± standard deviation (SD) of the unaided eye reading and the inhibition of growth for each tested dilution was calculated from the OD values (mean ± SD). A quality control microorganism (E. coli ATCC 25922) was tested periodically to validate the accuracy of the procedure.

E. coli ATCC 25922 = experiment: MIC by broth microdilution, E. coli; format: cell-based, Escherichia coli; conditions: colistin alone, MHB
Experimental: as §1

S. Typhimurium ATCC14028 = experiment: MIC by broth microdilution, S. Typhimurium; format: cell-based, Salmonella enterica serovar Typhimurium; conditions: colistin alone, MHB, ATCC14028 (wild type)
Experimental: as §1

Row | Compound | Kd (StOASS-B) [nM] | Kd (StOASS-A) [nM] | effect as colistin adjuvant [1] | MIC Colistin (S. Typhimurium DW378; DW378 mutant strain) [µg/mL] | MIC of colistin on mutant strain DW378 relative to WT (fold lower) (S. Typhimurium DW378; DW378 versus wild type) [fold] | MIC Colistin K. pneumoniae (K. pneumoniae ATCC13883) [µg/mL] | MIC Colistin E. coli (E. coli ATCC 25922) [µg/mL] | MIC Colistin S. Typhimurium (S. Typhimurium ATCC14028) [µg/mL]
1 | Cc1ccc(C[C@@]2(C(=O)O)C[C@H]2c2ccccc2)cc1 [UPAR415] | 490 | 28 | synergistic or additive effect | – | – | – | – | –
2 | Colistin [reference compound] | – | – | – | 0.141 ± 0.09 | 5 | 4.00 ± 1.73 | 0.39 ± 0.25 | 0.53 ± 0.19
